Results published in patent US9302999B2, “Substituted triazoles as herbicides” (E. I. DU PONT DE NEMOURS AND COMPANY, priority 2012, dated 2016).

What was measured:
Assay type in all cases: in vivo
[1] = system: foxtail, giant (giant foxtail, Setaria faberii); assay: Test C pre-/postemergence: foxtail, giant
In short: (§1)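 Visual injury scored 0–100 (100 = complete control) against untreated controls after 13–15 greenhouse days. Surfactant-containing solvent formulations applied either to soil after sowing (loam/sand) or over 1- to 4-leaf plants, 2–18 cm tall.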

[2] = system: morningglory (Ipomoea spp.); assay: Test A pre-/postemergence: morningglory; settings: Postemergence, 0 to 100 scale, 0 is no effect, 100 is complete control
In short: (§2)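 Visual 0–100 injury ratings (0 no effect, 100 complete control) taken about ten days after treatment, relative to untreated controls. Preemergence treatment was a directed soil spray; postemergence plants were 2–10 cm tall at one- to two-leaf stage. Soil: loam/sand blend.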

[3] = system: ragweed (common ragweed, Ambrosia elation); assay: Test C pre-/postemergence: ragweed
In short: as §1

[4] = system: large crabgrass (Digitaria sanguinalis); assay: Test C pre-/postemergence: large crabgrass
In short: as §1

[5] = system: ryegrass, Italian (Italian ryegrass, Lolium multiflorum); assay: Test C pre-/postemergence: ryegrass, Italian
In short: as §1

[6] = system: pigweed (Amaranthus retroflexus); assay: Test C pre-/postemergence: pigweed
In short: as §1

[7] = system: galium (catchweed bedstraw, Galium aparine); assay: Test C pre-/postemergence: galium
In short: as §1

[8] = system: wheat (Triticum aestivum); assay: Test A pre-/postemergence: wheat
In short: as §2

[9] = system: kochia (Kochia scoparia); assay: Test C pre-/postemergence: kochia; settings: Postemergence
In short: as §1

[10] = system: velvetleaf (Abutilon theophrasti); assay: Test C pre-/postemergence: velvetleaf
In short: as §1

[11] = system: johnsongrass (Sorghum halepense); assay: Test C pre-/postemergence: johnsongrass
In short: as §1

[12] = system: corn (Zea mays); assay: Test A pre-/postemergence: corn
In short: as §2

[13] = Postemergence, 31 g ai/ha, scale 0 to 100 (0 no effect, 100 complete control)
[14] = Postemergence, 62 g ai/ha, scale 0 to 100 (0 no effect, 100 complete control)
[15] = Postemergence, 125 g ai/ha, scale 0 to 100, 0 no effect, 100 complete control
[16] = Postemergence, 250 g ai/ha, scale 0 to 100
[17] = Preemergence, 31 g ai/ha, scale 0 (no effect) to 100 (complete control)
[18] = Preemergence, 62 g ai/ha, scale of 0 to 100, 0 is no effect, 100 is complete control
[19] = Preemergence, 125 g ai/ha, scale 0 to 100, 0 no effect, 100 complete control
[20] = Preemergence, 250 g ai/ha, scale 0 to 100, 0 no effect, 100 complete control
[21] = Postemergence, 125 g ai/ha, 0 to 100 scale, 0 is no effect, 100 is complete control
[22] = Postemergence, 500 g ai/ha, 0 to 100 scale, 0 is no effect, 100 is complete control
[23] = Preemergence, 125 g ai/ha, 0 to 100 scale where 0 is no effect and 100 is complete control
[24] = Preemergence, 500 g ai/ha, 0 to 100 scale (0 no effect, 100 complete control)

Q: With `CCc1nn(-c2ccc(F)cc2)nc1Oc1ccnc(C(F)(F)F)c1` [Compound 166] as the compound, how does the “Plant response rating, Foxtail, Giant” value [1, 13] read?
A: Its value is 20.

Q: What about the “Plant response rating, Foxtail, Giant” value [1, 14] of the same compound?
A: Its value is 40.

Q: And the “Plant response rating, Foxtail, Giant” value [1, 15]?
A: Its value is 40.

Q: And the “Plant response rating, Foxtail, Giant” value [1, 16]?
A: Its value is 40.

Q: What about the “Plant response rating, Foxtail, Giant” value [1, 17] of the same compound?
A: The value was 100.

Q: And the “Plant response rating, Foxtail, Giant” value [1, 18]?
A: The value was 100.

Q: And the “Plant response rating, Foxtail, Giant” value [1, 19]?
A: Its value is 100.

Q: And the “Plant response rating, Foxtail, Giant” value [1, 20]?
A: The value was 100.

Q: And the “Plant response rating, Morningglory” value ([2]; 125 g ai/ha)?
A: The value was 90.

Q: And the “Morningglory plant response rating” value ([2]; 500 g ai/ha)?
A: The value was 100.

Q: And the “Plant response rating, Ragweed” value [3, 13]?
A: Its value is 15.

Q: What about the “Plant response rating, Ragweed” value [3, 14] of the same compound?
A: Its value is 15.

Q: And the “Plant response rating, Ragweed” value [3, 15]?
A: Its value is 25.

Q: What about the “Plant response rating, Ragweed” value [3, 16] of the same compound?
A: Its value is 75.

Q: And the “Plant response rating, Ragweed” value [3, 17]?
A: Its value is 20.

Q: And the “Plant response rating, Ragweed” value [3, 18]?
A: The value was 20.

Q: What about the “Plant response rating, Ragweed” value [3, 19] of the same compound?
A: Its value is 25.

Q: And the “Plant response rating, Ragweed” value [3, 20]?
A: Its value is 55.

Q: And the “Plant response rating, Crabgrass, Large” value [4, 13]?
A: The value was 15.

Q: What about the “Plant response rating, Crabgrass, Large” value [4, 14] of the same compound?
A: Its value is 15.

Q: And the “Plant response rating, Crabgrass, Large” value [4, 15]?
A: The value was 20.

Q: What about the “Plant response rating, Crabgrass, Large” value [4, 16] of the same compound?
A: Its value is 40.

Q: And the “Plant response rating, Crabgrass, Large” value [4, 17]?
A: Its value is 85.

Q: And the “Plant response rating, Crabgrass, Large” value [4, 18]?
A: The value was 98.

Q: What about the “Plant response rating, Crabgrass, Large” value [4, 19] of the same compound?
A: The value was 100.

Q: And the “Plant response rating, Crabgrass, Large” value [4, 20]?
A: The value was 100.

Q: And the “Plant response rating, Ryegrass, Italian” value [5, 13]?
A: The value was 5.

Q: What about the “Plant response rating, Ryegrass, Italian” value [5, 14] of the same compound?
A: Its value is 5.

Q: And the “Plant response rating, Ryegrass, Italian” value [5, 15]?
A: The value was 20.

Q: And the “Plant response rating, Ryegrass, Italian” value [5, 16]?
A: Its value is 25.

Q: And the “Plant response rating, Ryegrass, Italian” value [5, 17]?
A: The value was 5.

Q: What about the “Plant response rating, Ryegrass, Italian” value [5, 18] of the same compound?
A: Its value is 40.

Q: And the “Plant response rating, Ryegrass, Italian” value [5, 19]?
A: The value was 50.

Q: What about the “Plant response rating, Ryegrass, Italian” value [5, 20] of the same compound?
A: The value was 100.

Q: What about the “Plant response rating, Pigweed” value [6, 13] of the same compound?
A: Its value is 35.

Q: What about the “Plant response rating, Pigweed” value [6, 14] of the same compound?
A: Its value is 85.

Q: And the “Plant response rating, Pigweed” value [6, 15]?
A: The value was 95.

Q: What about the “Plant response rating, Pigweed” value [6, 16] of the same compound?
A: Its value is 98.

Q: What about the “Plant response rating, Pigweed” value [6, 17] of the same compound?
A: Its value is 100.

Q: What about the “Plant response rating, Pigweed” value [6, 18] of the same compound?
A: Its value is 100.

Q: What about the “Plant response rating, Pigweed” value [6, 19] of the same compound?
A: The value was 100.

Q: And the “Plant response rating, Pigweed” value [6, 20]?
A: The value was 100.

Q: And the “Plant response rating, Galium” value [7, 13]?
A: Its value is 50.

Q: What about the “Plant response rating, Galium” value [7, 14] of the same compound?
A: The value was 50.

Q: What about the “Plant response rating, Galium” value [7, 15] of the same compound?
A: Its value is 60.

Q: And the “Plant response rating, Galium” value [7, 16]?
A: The value was 80.

Q: And the “Plant response rating, Galium” value [7, 17]?
A: Its value is 10.

Q: And the “Plant response rating, Galium” value [7, 18]?
A: The value was 10.

Q: What about the “Plant response rating, Galium” value [7, 19] of the same compound?
A: Its value is 90.

Q: What about the “Plant response rating, Galium” value [7, 20] of the same compound?
A: Its value is 100.

Q: And the “Plant response rating, Wheat” value [8, 21]?
A: The value was 30.

Q: What about the “Wheat plant response rating” value [8, 22] of the same compound?
A: Its value is 40.

Q: And the “Plant response rating, Wheat” value [8, 23]?
A: Its value is 10.

Q: What about the “Plant response rating, Wheat” value [8, 24] of the same compound?
A: The value was 50.

Q: What about the “Plant response rating, Kochia” value ([9]; 31 g ai/ha, scale 0 to 100 (0 no effect, 100 complete control)) of the same compound?
A: Its value is 90.

Q: What about the “Plant response rating, Kochia” value ([9]; 62 g ai/ha, scale 0 to 100 (0 no effect, 100 complete control)) of the same compound?
A: Its value is 90.

Q: What about the “Plant response rating, Kochia” value ([9]; 125 g ai/ha, scale 0 to 100, 0 no effect, 100 complete control) of the same compound?
A: Its value is 90.

Q: What about the “Plant response rating, Kochia” value ([9]; 250 g ai/ha, scale 0 to 100) of the same compound?
A: Its value is 90.

Q: What about the “Plant response rating, Velvetleaf” value [10, 13] of the same compound?
A: The value was 10.

Q: What about the “Plant response rating, Velvetleaf” value [10, 14] of the same compound?
A: Its value is 20.

Q: And the “Plant response rating, Velvetleaf” value [10, 15]?
A: The value was 20.

Q: And the “Plant response rating, Velvetleaf” value [10, 16]?
A: Its value is 30.

Q: And the “Plant response rating, Velvetleaf” value [10, 17]?
A: The value was 0.

Q: What about the “Plant response rating, Velvetleaf” value [10, 18] of the same compound?
A: Its value is 0.

Q: What about the “Plant response rating, Velvetleaf” value [10, 19] of the same compound?
A: Its value is 15.

Q: And the “Plant response rating, Velvetleaf” value [10, 20]?
A: The value was 60.

Q: What about the “Plant response rating, Johnsongrass” value [11, 13] of the same compound?
A: Its value is 10.

Q: And the “Plant response rating, Johnsongrass” value [11, 14]?
A: Its value is 15.

Q: What about the “Plant response rating, Johnsongrass” value [11, 15] of the same compound?
A: The value was 20.

Q: And the “Plant response rating, Johnsongrass” value [11, 16]?
A: Its value is 20.

Q: And the “Plant response rating, Johnsongrass” value [11, 17]?
A: Its value is 10.

Q: And the “Plant response rating, Johnsongrass” value [11, 18]?
A: Its value is 30.

Q: And the “Plant response rating, Johnsongrass” value [11, 19]?
A: Its value is 75.

Q: What about the “Plant response rating, Johnsongrass” value [11, 20] of the same compound?
A: Its value is 100.

Q: What about the “Plant response rating, Corn” value [12, 21] of the same compound?
A: Its value is 20.

Q: What about the “Corn plant response rating” value [12, 22] of the same compound?
A: The value was 30.

Q: And the “Plant response rating, Corn” value [12, 23]?
A: Its value is 10.

Q: What about the “Plant response rating, Corn” value [12, 24] of the same compound?
A: Its value is 30.
